Test system: NHBE cells
Experiment: Biolog metabolic array: substrate use by NHBE cells with or without CA09 infection
Type: cell-based, human
Conditions: for Substrate use, 590 nm absorbance normalized to zero hour, 0 hr: Biolog PMM2, 0 hr; for Substrate use, 590 nm absorbance normalized to zero hour, 1 hr: Biolog PMM2, 1 hr; for Substrate use, 590 nm absorbance normalized to zero hour, 5 hr: Biolog PMM2, 5 hr; for Substrate use, 590 nm absorbance normalized to zero hour, 7 hr: Biolog PMM2, 7 hr
[1] = Control (uninfected) NHBE cells
[2] = Virus (CA09-infected, MOI 1) NHBE cells
[3] = Virus: CA09-infected NHBE cells, MOI 1, Biolog PMM2
[4] = Virus (CA09, MOI 1) infected NHBE cells

Molecule	590 nm absorbance normalized to zero hour (substrate use), 0 hr [1]	590 nm absorbance normalized to zero hour (substrate use), 1 hr [1]	590 nm absorbance normalized to zero hour (substrate use), 2 hr [1]	590 nm absorbance normalized to zero hour (substrate use), 3 hr [1]	590 nm absorbance normalized to zero hour (substrate use), 4 hr [1]	590 nm absorbance normalized to zero hour (substrate use), 6 hr [1]	590 nm absorbance normalized to zero hour (substrate use), 8 hr [1]	590 nm absorbance normalized to zero hour (substrate use), 9 hr [1]	590 nm absorbance normalized to zero hour (substrate use), 10 hr [1]	590 nm absorbance normalized to zero hour (substrate use), 11 hr [1]	Substrate use, 590 nm absorbance normalized to zero hour, 0 hr [1]	Substrate use, 590 nm absorbance normalized to zero hour, 1 hr [1]	Substrate use, 590 nm absorbance normalized to zero hour, 5 hr [1]	Substrate use, 590 nm absorbance normalized to zero hour, 7 hr [1]	590 nm absorbance normalized to zero hour (substrate use), 0 hr [2]	590 nm absorbance normalized to zero hour (substrate use), 1 hr [2]	590 nm absorbance normalized to zero hour (substrate use), 2 hr [2]	590 nm absorbance normalized to zero hour (substrate use), 3 hr [2]	590 nm absorbance normalized to zero hour (substrate use), 6 hr [2]	590 nm absorbance normalized to zero hour (substrate use), 8 hr [2]	further results
Mannan	1.00	1.03	0.89	1.03	1.06	1.80	1.08	1.09	1.11	1.27	1.00	1.03	1.14	1.15	1.00	1.03	1.25	1.28	1.44	1.49	590 nm absorbance normalized to zero hour (substrate use), 5 hr [2]: 1.41; 590 nm absorbance normalized to zero hour (substrate use), 7 hr [2]: 1.49; 590 nm absorbance normalized to zero hour (substrate use), 9 hr [2]: 1.61; 590 nm absorbance normalized to zero hour (substrate use), 11 hr [2]: 1.76; 590 nm absorbance normalized to zero hour (substrate use), 0 hr [3]: 1.00; 590 nm absorbance normalized to zero hour (substrate use), 1 hr [3]: 1.03; 590 nm absorbance normalized to zero hour (substrate use), 2 hr [3]: 1.25; 590 nm absorbance normalized to zero hour (substrate use), 3 hr [3]: 1.28; 590 nm absorbance normalized to zero hour (substrate use), 5 hr [3]: 1.41; 590 nm absorbance normalized to zero hour (substrate use), 6 hr [3]: 1.44; 590 nm absorbance normalized to zero hour (substrate use), 7 hr [3]: 1.49; 590 nm absorbance normalized to zero hour (substrate use), 8 hr [3]: 1.49; 590 nm absorbance normalized to zero hour (substrate use), 9 hr [3]: 1.61; 590 nm absorbance normalized to zero hour (substrate use), 11 hr [3]: 1.76
CO[C@@H]1O[C@H](CO)[C@@H](O)[C@H](O)[C@H]1O [b-Methyl-D-Glucoside]	1.00	1.32	1.80	1.84	2.02	1.04	3.05	3.33	3.70	4.24	1.00	1.32	2.32	2.85	1.00	2.00	2.80	3.24	4.32	4.86	Substrate use, 590 nm absorbance normalized to zero hour, 0 hr [4]: 1.00; Substrate use, 590 nm absorbance normalized to zero hour, 1 hr [4]: 2.00; Substrate use, 590 nm absorbance normalized to zero hour, 5 hr [4]: 3.99; Substrate use, 590 nm absorbance normalized to zero hour, 7 hr [4]: 4.57; 590 nm absorbance normalized to zero hour (substrate use), 4 hr [2]: 3.45; 590 nm absorbance normalized to zero hour (substrate use), 9 hr [2]: 5.41; 590 nm absorbance normalized to zero hour (substrate use), 10 hr [2]: 5.67; 590 nm absorbance normalized to zero hour (substrate use), 11 hr [2]: 6.22
OC[C@H]1OC(O)[C@@H](O)[C@@H](O)[C@@H]1O (stereo partly drawn) [D-Mannose]	1.00	2.20	3.33	4.33	4.90	6.50	8.13	9.60	10.60	12.47	1.00	2.20	6.64	8.62	1.00	1.49	2.09	2.68	4.57	5.47	590 nm absorbance normalized to zero hour (substrate use), 4 hr [2]: 3.06; 590 nm absorbance normalized to zero hour (substrate use), 5 hr [2]: 4.10; 590 nm absorbance normalized to zero hour (substrate use), 7 hr [2]: 4.94; 590 nm absorbance normalized to zero hour (substrate use), 9 hr [2]: 6.51; 590 nm absorbance normalized to zero hour (substrate use), 10 hr [2]: 6.80; 590 nm absorbance normalized to zero hour (substrate use), 11 hr [2]: 7.75; 590 nm absorbance normalized to zero hour (substrate use), 0 hr [3]: 1.00; 590 nm absorbance normalized to zero hour (substrate use), 1 hr [3]: 1.49; 590 nm absorbance normalized to zero hour (substrate use), 2 hr [3]: 2.09; 590 nm absorbance normalized to zero hour (substrate use), 3 hr [3]: 2.68; 590 nm absorbance normalized to zero hour (substrate use), 4 hr [3]: 3.06; 590 nm absorbance normalized to zero hour (substrate use), 5 hr [3]: 4.10; 590 nm absorbance normalized to zero hour (substrate use), 6 hr [3]: 4.57; 590 nm absorbance normalized to zero hour (substrate use), 7 hr [3]: 4.94; 590 nm absorbance normalized to zero hour (substrate use), 8 hr [3]: 5.47; 590 nm absorbance normalized to zero hour (substrate use), 9 hr [3]: 6.51; 590 nm absorbance normalized to zero hour (substrate use), 10 hr [3]: 6.80; 590 nm absorbance normalized to zero hour (substrate use), 11 hr [3]: 7.75

Source: patent publication US11083725B2 (priority 2014, dated 2021)
